These results are taken from patent US6294649A, “Method of cell inhibition using polypeptides derived from the venom of the Austrialian jumper ant Myrmecia pilosula” (Northern Sydney Area Health Service, priority 1996, dated 2001).

In one data set the test system is Red blood cells. As to the kind of experiment: Red blood cell lysis. The data set is classed as cell-based. The settings on record: 1% (v/v) red blood cells in PBS; peptides 0.3125-80 μM. The method, then: Red blood cells were prepared from fresh whole blood. Red blood cells were diluted to 1% (v/v) with PBS and 0.1 mL aliquots added to a 96 well microtitre plate. Venom and venom peptides were added in 5 μL of normal saline. Whole ant venom concentration (final): 80, 40, 20, 10, 5, 2.5, 1.25, 0.625, 0.3125 4μg/mL. Venom peptide concentration (final): 80, 40, 20, 10, 5, 2.5, 1.25, 0.625, 0.3125 μM.

Another data set deals with EBV-transformed B-cells. As to the kind of experiment: Flow cytometry cell viability (propidium iodide exclusion). It counts as cell-based, human. The following applies: 5 μM, treated for 5 minutes; untreated control about 15% permeable. The method, then: (§1) Cell proliferation and flow cytometry have been used to determine the cytotoxic effects on cells. Cell proliferation involves growing cells to log-phase growth and adding Pilosulin 1 at different final peptide concentrations and ^3 H-methyl thymidine at the same time. The cells are incubated at 37° C. for 16 hours, harvested, lysed and washed and the cells liquid scintillation counted. Flow cytometry employs the exclusion of propidium iodide from cells as an index of their viability. In experiments where fluorescent labelled monoclonal antibodies recognising cell specific markers were used, exclusion of 7-actinomycin D was used as the index of cell viability. In these latter experiments cells were incubated with the fluorescent antibodies and then washed to remove unbound antibodies. The treated cells were stored on ice and Pilosulin 1 added 5 minutes prior to flow cytometric measurement.
Flow cytometry can measure cell viability by their ability to exclude a fluorescent dye such as propidium iodide or 7-actinomycin D. EBV-transformed B-cells were cultured to log-phase growth and venom and venom peptides added. […] Cells were treated for 5 minutes with Pilosulin 1, Pilosulin 2 and melittin over a concentration range of 0.1 to 10 μM and then cell numbers were measured in the flow cytometer.
A general note: A flow cytometer gives signals particle by particle.

Data set [1] relates to Antibody-labelled (CD3-FITC) white blood cells (T-cell). Briefly: Kinetics of cell killing at different temperatures (7-AAD, flow cytometry). The following applies: 3 μM melittin. The data set is classed as cell-based. The method, then: The kinetics of Pilosulin 1 and melittin cell killing at different temperatures were investigated. Antibody-labelled (CD3-FITC) white blood cells were incubated with 7-AAD (4 μg/mL) and either 1.5 μM Pilosulin 1 or 3 μM melittin. Three tubes were prepared for each peptide and the tubes were incubated at either 0° C. (circles), room temperature (triangles), or 37° C. (diamonds). Samples of each tube were analysed on a flow cytometer at time zero and thereafter at 2, 5 10 and 15 minutes.

Data set [2] deals with Epstein Barr-transformed human B-cells. As to the kind of experiment: Cell proliferation (3H-methyl-thymidine). The data set is classed as cell-based. The method, then:
as §1
Epstein Barr-transformed human B-cells grown to log phase. One hundred […] of cells (10^5 cells) were placed in the wells of microtitre plates. Venom and venom peptides added to the wells in […] to give final concentrations used in the red cell lysis experiment. One μCi of ^3 H-methyl-thymidine was added to the wells and the plates incubated overnight at 37° C. Cells harvested 17 hr later and counted.

The test system of another data set is granulocyte population. Briefly: Relative cytotoxicity for leucocyte components, flow cytometry (7-actinomycin D uptake). It counts as cell-based. The method, then:
as §1
The relative cytotoxicity of Pilosulin 1 for the different components of the leucocyte population was studied and the results are shown in FIG. 3.

The subject of data set [3] is solid tumour cell lines including a breast cancer, a brain tumour and a kidney cell tumour line. As to the kind of experiment: Cytotoxicity for solid tumour cell lines. The data set is classed as cell-based. The method, then:
as §1

Data set [4] deals with normal blood cells, in particular, lymphocytes monocytes and natural killer cells. As to the kind of experiment: Cytotoxicity for normal blood cells. The data set is classed as cell-based. The method, then:
as §1

The test system of data set [5] is cancer cells of myeloid and lymphoid origin. Briefly: Cytotoxicity towards cancer cells. The data set is classed as cell-based. The following applies: in particular rapidly dividing cancer cells of myeloid and lymphoid origin.
A further data set deals with cells. As to the kind of experiment: Cytotoxicity to cells (cell proliferation and flow cytometry). The following applies: cells tested. The data set is classed as cell-based. The method, then:
as §1

Where two headings read alike, the source gives them in different places. No end group written: not given here.

Turning to `CC[C@H](C)[C@H](NC(=O)CN)C(=O)NCC(=O)N[C@@H](C)C(=O)N[C@H](C(=O)N[C@@H](CC(C)C)C(=O)N[C@@H](CCCCN)C(=O)N[C@H](C(=O)N[C@@H](CC(C)C)C(=O)N[C@H](C(=O)N[C@H](C(=O)NCC(=O)N[C@@H](CC(C)C)C(=O)N1CCC[C@H]1C(=O)N[C@@H](C)C(=O)N[C@@H](CC(C)C)C(=O)N[C@H](C(=O)N[C@@H](CO)C(=O)N[C@@H](Cc1c[nH]c2ccccc12)C(=O)N[C@H](C(=O)N[C@@H](CCCCN)C(=O)N[C@@H](CCCNC(=N)N)C(=O)N[C@@H](CCCCN)C(=O)N[C@@H](CCCNC(=N)N)C(=O)N[C@@H](CCC(N)=O)C(=O)N[C@@H](CCC(N)=O)C(N)=O)[C@@H](C)CC)[C@@H](C)CC)[C@@H](C)O)[C@@H](C)O)C(C)C)C(C)C` [Melittin], the “efficiency on a molar basis in the lysis of red blood cells” value in the data set on Red blood cells was “most efficient”. Further, the “% Viable Cells” value in the data set with EBV-transformed B-cells turned out to be 53.5%. In addition, the cells killed in [1] (0° C., 10 minutes) is on record as 25%; in [1] (37° C., 2 minutes), “all cells were killed”; in data set [1] (room temperature, 2 minutes), 85%; in [1] (room temperature, 5 minutes), “killed all cells”.
As for “GLGSVFGRLARILGRVIPKVAKKLGPKVAKVLPKVMKEAIPMAVEMAKSQEEQQPQ [Pilosulin 1]”, the “cytotoxicity for proliferating Epstein-Barr Virus transformed B-cells” value in [2] is given as “cytotoxic”. The “effectiveness as a cytotoxin at 50% cell viability (relative)” value in data set [2] (3H-methyl-thymidine, overnight at 37° C., comparator not named) is “approximately 4 times”. Also, the cytotoxicity for granulocytes entry with granulocyte population is recorded as “resistant”. In addition, in data set [3], the “cytotoxicity for solid tumour cell lines” value is on record as “cytotoxic”. In addition, the “cytotoxicity for normal blood cells” value in data set [4] is on record as “low”; in [4] (listed as Pilostilin 1), “cytotoxic”. In data set [5], the “cytotoxicity towards cancer cells” value is “potent cytotoxicity”.
As for “KLGPKVAKVLPKVMKEAIPMAVEMAKSQEEQQPQ [peptide 2]”, the cytotoxicity to cells result in the data set on cells is “no detectable cytotoxicity”.
